Read-outs that look alike come from different tables or passages of the source.
Experiments:
[1] = pharmacokinetic testing of indoximod prodrugs in liquid formulation in mice; settings: for AUC(0-inf) / Cmax / Tmax / half-life: mouse, plasma, po; for % Change in Norm. Cmax / % Increase in Norm AUC: vs indoximod, Mouse, PO solution, salt form FB
Procedure: Blood samples (0.1-0.2 mL) were collected from the femoral artery port from rats or by retro-orbital bleeding from mice and plasma was immediately collected by centrifugation and stored on dry ice to avoid prodrug hydrolysis after plasma collection. […] The pharmacokinetic parameters reflect the average of individual parameter values obtained from each individual rat (n) or one common parameter from a single pharmacokinetic curve derived from blood samples obtained from a group of mice (n).

[2] = pharmacokinetic testing of indoximod salts in capsule formulation in rats; type: in vivo; settings: rat, plasma, po, capsules
Procedure: Three dose levels were investigated: 37, 185 or 500 μmol/kg.
Capsules were manually filled and the composition uniformity of a representative sample of capsules from each batch was verified by weight and by LC-MS/MS to determine the average indoximod content.
(§1) Rats were fasted 16 h prior to dosing to eliminate any confounding food effects, and food was returned 2 h after dosing.

[3] = crossover pharmacokinetic study of indoximod free base, salts and SDD in cynomolgus monkeys; type: in vivo; settings: male, cynomolgus monkey, plasma, po; for AUC(0-t): oral, read-out: AUC(0 −> 48 h)
Procedure: The SDD suspension formulations were prepared in 0.5% methylcellulose (Methocel).

[4] = human pharmacokinetics of oral indoximod; type: in vivo; settings: plasma
[5] = pharmacokinetic testing of indoximod prodrug salts in solid capsule formulation in cynomolgous monkeys
[6] = pharmacokinetic testing of indoximod prodrug salts in solid capsule formulation in rats; type: in vivo; settings: for % Change Cmax / % Change in AUC: vs indoximod free base
Procedure: These blends were formulated so that each capsule contained the same molar dose of each prodrug. […] The composition and uniformity of a representative sample of capsules from each batch was verified by weight and by LC-MS/MS to determine the average indoximod or prodrug content.
as §1

[7] = in-vitro dissolution test of SDD formulations in simulated gastric buffer (GB) and simulated intestinal fluid (SIF); type: physicochemical
Procedure: In this study, SDD formulations were made by two methods: hot process spray dry—formulation solution heated up to 110° C. before spraying dry, and basic spray dry—formulation pH raised up to ˜11.5 (room temperature) before spraying dry. The performance of each SDD formulation was investigated by in-vitro dissolution test in simulated gastric buffer (GB) and simulated intestinal fluid (SIF). […] In addition, higher drug load in the powder was preferred since it could decrease the dose amount of the final formulation. Based on all these criteria, two SDD formulations were selected for further in vivo PK studies in monkeys.

[8] = hygroscopicity and stability of indoximod and its salts; type: physicochemical
[9] = indoximod plasma exposure in murine antitumor experiments; type: in vivo; settings: mice; for exposure: ~500 mg/kg/day or oral 200 mg/kg bid
[10] = test system: ectopic melanoma, colon and lung tumors, breast tumor models; settings: cited from earlier work
[11] = solubility of indoximod and its salts in water, buffers and SGF; type: physicochemical
[12] = indoximod, cynomolgous monkeys, oral capsules, dose 275 μmol/kg, salt form free base
[13] = Table 10.1, rats, oral capsules, dose 37 μmol/kg, salt form free base
[14] = Table 10.1, rats, oral capsules, dose 185 μmol/kg, salt form free base
[15] = Table 10.1, rats, oral capsules, dose 500 μmol/kg, salt form free base
[16] = Table 10.2, indoximod, rats, oral capsules, dose 37 μmol/kg, salt form free base
[17] = Table 10.2, indoximod, rats, oral capsules, dose 185 μmol/kg, salt form free base
[18] = Table 10.2, indoximod, rats, oral capsules, dose 500 μmol/kg, salt form free base
[19] = Table 10.2, rats, oral capsules, dose 37 μmol/kg, salt form free base
[20] = Table 10.2, rats, oral capsules, dose 185 μmol/kg, salt form free base
[21] = Table 10.2, rats, oral capsules, dose 500 μmol/kg, salt form free base

SMILES: Cn1cc(C[C@@H](N)C(=O)O)c2ccccc21 [indoximod, 1-methyl-D-tryptophan, reference compound]
- AUC(0-inf) ([1]; 10 mg/kg): 34 µM·h
- Cmax ([1]; 10 mg/kg): 9 µM
- Tmax ([1]; 10 mg/kg): 0.5 h
- half-life ([1]; 10 mg/kg): 1.8 h
- AUC(0-inf) ([1]; 100 mg/kg): 325 µM·h
- Cmax ([1]; 100 mg/kg): 43 µM
- Tmax ([1]; 100 mg/kg): 1 h
- half-life ([1]; 100 mg/kg): 3.5 h
- % Change in Norm. Cmax ([1]; dose 10 mg/kg): 0%
- % Increase in Norm AUC ([1]; dose 10 mg/kg): 0%
- % Change in Norm. Cmax ([1]; dose 100 mg/kg): 0%
- % Increase in Norm AUC ([1]; dose 100 mg/kg): 0%
- AUC(0-inf) ([2]; 37 umol/kg): 390 ± 166 µM·h
- AUC(0-inf) ([2]; 185 umol/kg): 1080 ± 478 µM·h
- Cmax ([2]; 185 umol/kg): 20.8 ± 4 µM
- AUC(0-inf) ([2]; 500 umol/kg): 2870 ± 1380 µM·h
- Cmax ([3]; 275 umol/kg): 12.9 ± 3.3 µM
- AUC(0-t) ([3]; 275 umol/kg, 275 μmol/kg): 66 ± 17 µM·h
- Cmax ([3]; 825 umol/kg): 25.6 ± 12.8 µM
- AUC(0-t) ([3]; 825 umol/kg, 825 μmol/kg): 127 ± 73 µM·h
- Tmax [4]: ~3 h
- half-life [4]: ~10 h
- AUC(0-t) ([4]; patients, up to 800 mg/dose, read-out: drug exposure (AUC(0-last))): ~100 µM·h
- Cmax ([4]; po, 800 mg/dose, patients, about 800 mg/dose, read-out: maximum plasma concentration (Cmax)): 15 µM
- AUC(0-inf) ([4]; ~800 mg/dose): 100 µM·h
- AUC(0->∞) ([5]; indoximod, cynomolgous monkeys, oral capsules, dose 92 μmol/kg, salt form free base): 38.5 ± 4 µM·h
- AUC(0->∞) [5, 12]: 74.9 ± 5 µM·h
- Cmax [5, 12]: 17.5 ± 3 µM
- Cmax ([5]; monkey, blood, po, 92 umol/kg): 8.2 ± 0.4 µM
- AUC(0-inf) ([5]; monkey, blood, po, 875 umol/kg): 165 ± 52 µM·h
- Cmax ([5]; monkey, blood, po, 875 umol/kg): 27.8 ± 8 µM
- % Change Cmax [6, 13]: 0%
- % Change in AUC [6, 13]: 0%
- % Change Cmax [6, 14]: 0%
- % Change in AUC [6, 14]: 0%
- % Change Cmax [6, 15]: 0%
- % Change in AUC [6, 15]: 0%
- AUC(0->∞) [6, 16]: 390 ± 166 µM·h
- Cmax [6, 16]: 15.9 ± 8 µM
- AUC(0->∞) [6, 17]: 1080 ± 478 µM·h
- Cmax [6, 17]: 20.8 ± 4 µM
- AUC(0->∞) [6, 18]: 2871 ± 1379 µM·h
- Cmax [6, 18]: 76.2 ± 25 µM
- % Change Cmax [6, 19]: 0%
- % Change in AUC [6, 19]: 0%
- % Change Cmax [6, 20]: 0%
- % Change in AUC [6, 20]: 0%
- % Change Cmax [6, 21]: 0%
- % Change in AUC [6, 21]: 0%
- Cmax ([6]; Table 10.3, indoximod, rats, oral capsules, dose 37 μmol/kg, salt form free base): 15.9 ± 8 µM
- Cmax ([6]; Table 10.3, indoximod, rats, oral capsules, dose 185 μmol/kg, salt form free base): 20.8 ± 4 µM
- Cmax ([6]; Table 10.3, indoximod, rats, oral capsules, dose 500 μmol/kg, salt form free base): 76.2 ± 25 µM
- AUC(0-inf) ([6]; rat, plasma, po, 37 umol/kg): 390 ± 166 µM·h
- Cmax ([6]; rat, plasma, po, 37 umol/kg): 15.9 ± 8 µM
- AUC(0-inf) ([6]; rat, plasma, po, 185 umol/kg): 1080 ± 478 µM·h
- Cmax ([6]; rat, plasma, po, 185 umol/kg): 20.8 ± 4 µM
- AUC(0-inf) ([6]; rat, plasma, po, 500 umol/kg): 2870 ± 1380 µM·h
- Cmax ([6]; rat, plasma, po, 500 umol/kg): 76.2 ± 25 µM
- UltraC90 ([7]; SIF, 90 min, after ultracentrifugation): 1,849 μg/mL
- UltraC1200 ([7]; SIF, 1200 min, after ultracentrifugation): 1,854 μg/mL
- CmaxGB ([7]; maximum indoximod concentration, dissolved in GB for 30 min): 5,154 μg/mL
- Cmax90 ([7]; maximum indoximod concentration, dissolved in SIF for 90 min): 2,213 μg/mL
- hygroscopicity (weight gain) ([8]; 0-80%RH): 0.09%
- stability in solution ([8]; 0.1 N HCl and 50 mM phosphate buffers pH 2-8, 25° C., 24 hours): stable
- chemical stability of the solid powder form ([8]; 25° C/60%RH, 40° C., 40° C/75%RH, 60° C. and 70° C. for 4 weeks): chemically stable
- Hygroscopicity (0-80% RH) ([8]; Table 2, listed as Free base, in % (unit assumed)): 0.09
- exposure [9]: greater than 300 μM.h
- exposure ([9]; listed as Indoximod): > 300 µM·h
- Cmax ([9]; mouse, plasma, drinking water 3 mg/mL (~500 mg/kg/day) or oral 200 mg/kg bid): > 20 µM
- antitumor effect ([10]; in combination with chemotherapy): demonstrates antitumor effects
- antitumor effect ([10]; melanoma models, combination with anti-CTLA4 (ipilimumab)): synergistic antitumor effect
- pH of the SGF solution (in brackets) ([11]; 25° C., SGF solubility test, listed as Free base): 2.32
- Solubility (25° C., mg/mL) SGF ([11]; 25° C., SGF, listed as Free base): 3.6 mg/mL
- pH of the water solution (in brackets) ([11]; 25° C., water solubility test, listed as Free base): 6.03
- Solubility (25° C., mg/mL) Water ([11]; 25° C., water, listed as Free base): 1.8 mg/mL
- solubility ([11]; aqueous solutions, buffered or un-buffered, pH 2, aqueous buffer, pH 2-8): 1800 to 2000 µg/mL

— patent US20190248739A1 (NEWLINK GENETICS CORPORATION, priority 2015, published 2019)
